According to PMC3968128, “Broadly Reactive Human CD8 T Cells that Recognize an Epitope Conserved between VZV, HSV and EBV” (PLoS Pathogens, 2014):
Ends that are not written are not given here.

Key:
[1] = system: PBMCs from HLA-A*0201+ volunteers; assay: Ex vivo IFN-γ ELISpot assay; type: cell-based, human; conditions: individual peptides at 10 µg/ml; 20 h, 37°C
Description: We recruited 21 HLA-A*0201 positive volunteers with a history of primary VZV infection, detectable VZV IgG but no previous VZV vaccination or clinical evidence of recent reactivation (Table 1). The median age was 63 years (range 25–77 years). Epitope predictions in the context of HLA-A*0201 were made using the Immune Epitope Database consensus prediction tool with the complete published VZV sequences (Table S1). The top 0.5% of 9- and 10-mers (367 peptides) were synthesized and peptide pools screened by IFN-γ ELISpot using PBMCs from each subject. In 15/21 subjects, the same peptide pool induced positive responses (Figure 1a). […] Tetramer+ cells were detected in 12/21 subjects with frequencies ranging from 0.01% to 1.8% of CD8 T cells (Figure 1d). ILI was thus identified as an immunodominant HLA-A*0201-restricted class I epitope.
Gamma interferon (IFN-γ) enzyme-linked immunospot (ELISpot) assays were performed using 2×10^5 PBMC stimulated with peptide pools (10 µg/ml/peptide). Peptide pools yielding positive responses were deconvoluted, by testing individual peptides at 10 µg/ml. After 20 h of incubation at 37°C, plates were developed, and responses were calculated. Positive wells contained ≥20 spot-forming units (SFU)/10^6 cells and a P value of ≤0.05 using a Student's t test in at least 2 experiments.

[2] = target: T1, HLA A*02:01 class I molecules (Homo sapiens, UniProt P04439, D140Y/D185E/D98H/E176V/E277Q/G131W/G231S/I119V/I121R/I166T/I218V/L300P/L318F/N151K/N90K/P208A/P217A/Q86G/Q94H/R138H/R169H/T345S); assay: MHC-peptide binding assay, inhibition of binding of radiolabeled standard peptide; conditions: inhibition of binding of radiolabeled HBV core 18–27 analogue […]; purified MHC from JY cells; six concentrations, three or more independent assays; read-out: Measured affinity IC50
T1 construct: endogenous in cells; host or cells: JY (EBV-transformed homozygous B cell line)
Description: Quantitative assays to measure the binding of peptides to HLA A*02:01 class I molecules are based on the inhibition of binding of a radiolabeled standard peptide (HBV core 18–27 analogue, […]). MHC molecules were purified by affinity chromatography from the EBV transformed homozygous cell line JY, and assays performed, as described previously. […] Under the conditions used, where [radiolabeled probe] < [MHC] and IC50 ≥ [MHC], the measured IC50 values are reasonable approximations of the true Kd values.

| Sequence | IFN-γ production (individual peptides) [1] | IC50 [2] |
| --- | --- | --- |
| MILIEGIFFV [10-mer candidate peptide from ribonucleotide reductase subunit 2 (RNR2) of VZV] | strongly induced IFN-γ production |  |
| ILIEGIFFV |  | 0.03 nM |
| ILIEGIFFA |  | 0.15 nM |
| ILIEGVFFA |  | 0.16 nM |
| LLIEGIFFI |  | 0.12 nM |
